Reference: US20260201008A1, “SECRETIN-DERIVED GLP1R SELECTIVE AGONISTS” (GUBRA A/S, priority 2023, published 2026)
Where two headings read alike, the source gives them in different places. Numbered stars: 1 amine (or outer) side, 2 acyl side, 3 side chain; on linkers, the order of the positions; unused ones are H or OH. Square brackets hold non-standard residues; d marks the D form. Side chains are listed from the residue outwards. Peptide text beside a SMILES is read from it. * marks the point of attachment. C20 diacid = O=C(O)CCCCCCCCCCCCCCCCCCC(=O)*; γGlu = O=C(O)[C@H](CCC(=O)[*:2])N[*:1]; AEEA = NCCOCCOCC(=O)O; Aib = CC(C)(N)C(=O)O

Tests used:
GLP1R = GLP1R (Homo sapiens, UniProt P43220); assay: hGLP1R potency, cAMP accumulation in CHO-K1 cells stably overexpressing hGLP1R; format: cell-based; design: host or cells: CHO-K1; details: for SCTR EC50/GLP1R EC50 ratio: selectivity for hGLP1R over hSCTR, cAMP accumulation in CHO-K1 cells; for Selectivity: SCTR EC50/GLP1R EC50 ratio
Sequence of GLP1R (P43220 24-463): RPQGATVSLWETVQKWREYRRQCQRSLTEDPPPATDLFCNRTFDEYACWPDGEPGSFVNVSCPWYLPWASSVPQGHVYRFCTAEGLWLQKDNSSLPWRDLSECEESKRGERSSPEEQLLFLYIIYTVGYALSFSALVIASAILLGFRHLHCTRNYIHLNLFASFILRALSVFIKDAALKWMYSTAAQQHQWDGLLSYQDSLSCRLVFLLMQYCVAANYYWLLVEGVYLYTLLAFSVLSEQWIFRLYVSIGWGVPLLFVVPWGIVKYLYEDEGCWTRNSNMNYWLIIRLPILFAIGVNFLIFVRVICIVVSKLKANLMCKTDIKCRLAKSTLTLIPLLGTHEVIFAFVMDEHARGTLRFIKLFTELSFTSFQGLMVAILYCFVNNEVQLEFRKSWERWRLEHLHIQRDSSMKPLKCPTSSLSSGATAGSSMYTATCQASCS
How it was run: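 CHO-K1 cells stably expressing hGLP1R (2000/well) in DPBS with 0.05% casein and 0.5 mM IBMX were stimulated 30 min at room temperature with graded compound doses; human GLP-1(7-36) served as positive control. cAMP was read by HTRF after 1 h; EC50 came from variable-slope sigmoid fits (purified peptides: 11-point 3-fold, n=2).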

[1] = Fibril formation of crude library peptides (Thioflavin T); format: physicochemical; design: key: average ThT fluorescence emission at 480 nm (ex 450 nm), raw units; details: Physical stability of peptides
How it was run: (§1)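 Crude peptides at 267 μM in 50 mM sodium acetate pH 4.0 or 50 mM sodium phosphate pH 7.0, pre-incubated 1-2 h at room temperature, then 4 μM final ThT added. Turbidity read first as A600. ThT fluorescence (ex 450/em 480 nm) read every 10 min for 72 h at 40° C, with 5 min shaking before each read; fibril formation = average emission.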

[2] = Turbidity of crude library peptides (absorbance at 600 nm); format: physicochemical; details: Physical stability of peptides
How it was run: as §1

SCTR = SCTR (Homo sapiens, UniProt P47872); assay: hSCTR potency, cAMP accumulation in CHO-K1 cells stably overexpressing hSCTR; format: cell-based; design: alternatively Euroscreen ES-712-AF; FAST-0161L; host or cells: CHO-K1
Sequence of SCTR (P47872 23-440): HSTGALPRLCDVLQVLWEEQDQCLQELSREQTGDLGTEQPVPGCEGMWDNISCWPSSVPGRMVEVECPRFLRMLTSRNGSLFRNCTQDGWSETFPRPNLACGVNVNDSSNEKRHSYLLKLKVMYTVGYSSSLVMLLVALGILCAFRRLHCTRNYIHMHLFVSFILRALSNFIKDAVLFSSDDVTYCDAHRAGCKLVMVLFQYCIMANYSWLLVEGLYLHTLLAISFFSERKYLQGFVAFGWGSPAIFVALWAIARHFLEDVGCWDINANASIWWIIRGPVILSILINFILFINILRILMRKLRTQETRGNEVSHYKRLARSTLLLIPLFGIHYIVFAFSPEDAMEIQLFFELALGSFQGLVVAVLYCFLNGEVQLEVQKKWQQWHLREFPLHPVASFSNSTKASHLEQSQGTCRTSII
How it was run: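 Cells plated at 2000/well in DPBS with 0.05% casein and 0.5 mM IBMX, stimulated 30 min at room temperature with graded compound doses; human secretin as positive control. cAMP read by TR-FRET after 1 h. Purified peptides tested at 11 3-fold dilutions, n=2; EC50 by variable-slope sigmoid fit.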

[3] = cAMP accumulation, CHO-K1 cells overexpressing hGLP1R, read-out: hGLP1R pEC50 (converted)
[4] = cAMP accumulation, CHO-K1 cells overexpressing hSCTR, read-out: hSCTR pEC50 (converted)
[5] = cAMP accumulation, CHO-K1 cells overexpressing hGLP1R, read-out: pEC50 hGLPR1 (converted)
[6] = cAMP accumulation, CHO-K1 cells overexpressing hSCTR, read-out: pEC50 hSCTR (converted)

Row | SMILES | EC50 (GLP1R; [3]) | SCTR EC50/GLP1R EC50 ratio (GLP1R) | Fibril formation [1] | Turbidity (pH 7) [2] | EC50 (SCTR; [4]) | EC50 (GLP1R) | Selectivity (GLP1R) | EC50 (SCTR) | EC50 (GLP1R; [5]) | EC50 (SCTR; [6])
1 | CC[C@H](C)[C@H](NC(=O)[C@H](Cc1ccccc1)NC(=O)[C@H](CCCNC(=N)N)NC(=O)[C@H](CCC(N)=O)NC(=O)[C@H](CC(C)C)NC(=O)[C@H](C)NC(=O)[C@H](C)NC(=O)CNC(=O)[C@H](CCC(=O)O)NC(=O)[C@H](CC(C)C)NC(=O)[C@H](CC(C)C)NC(=O)[C@H](Cc1ccccc1)NC(=O)[C@H](CO)NC(=O)[C@@H](NC(=O)[C@H](CC(=O)O)NC(=O)[C@H](CO)NC(=O)[C@@H](NC(=O)[C@H](Cc1ccccc1)NC(=O)[C@@H](NC(=O)CNC(=O)[C@H](CCC(=O)O)NC(=O)C(C)(C)NC(=O)[C@@H](N)Cc1c[nH]cn1)[C@@H](C)O)[C@@H](C)O)C(C)C)C(=O)N[C@@H](CCC(N)=O)C(=O)N[C@@H](Cc1c[nH]c2ccccc12)C(=O)N[C@@H](CC(C)C)C(=O)N[C@H](C(N)=O)C(C)C [compound 177] (H-H[Aib]EGTFTSDVSFLLEGAALQRFIQWLV-NH2) | 0.0158 nM | 30839 | 260000 | 0.53 | 501 nM | – | – | – | – | –
2 | CC(C)C[C@H](NC(=O)[C@H](Cc1ccccc1)NC(=O)[C@H](CCCNC(=N)N)NC(=O)[C@H](CCC(N)=O)NC(=O)[C@H](C)NC(=O)[C@H](C)NC(=O)[C@H](C)NC(=O)C(C)(C)NC(=O)[C@H](CCC(=O)O)NC(=O)[C@H](CCCCNC(=O)COCCOCCNC(=O)COCCOCCNC(=O)CC[C@H](NC(=O)CCCCCCCCCCCCCCCCCCC(=O)O)C(=O)O)NC(=O)[C@H](CC(C)C)NC(=O)[C@@H](NC(=O)[C@H](CO)NC(=O)[C@@H](NC(=O)[C@H](CC(=O)O)NC(=O)[C@H](CO)NC(=O)[C@@H](NC(=O)[C@H](Cc1ccccc1)NC(=O)[C@@H](NC(=O)CNC(=O)[C@H](CCC(=O)O)NC(=O)C(C)(C)NC(=O)[C@@H](N)Cc1c[nH]cn1)[C@@H](C)O)[C@@H](C)O)C(C)C)[C@@H](C)O)C(=O)N[C@@H](CCC(=O)O)C(=O)N[C@@H](Cc1c[nH]cn1)C(=O)N[C@@H](CC(C)C)C(=O)N[C@H](C(N)=O)C(C)C [compound 43] (H-H[Aib]EGTFTSDVSTLK([AEEA-AEEA-γGlu-C20 diacid])E[Aib]AAAQRFLEHLV-NH2) | – | – | 18355 | 0.09 | – | 0.01 nM | 36686 | 316 nM | – | –
3 | CC(C)C[C@H](NC(=O)[C@H](CCC(=O)O)NC(=O)[C@H](CCCCNC(=O)COCCOCCNC(=O)COCCOCCNC(=O)CC[C@H](NC(=O)CCCCCCCCCCCCCCCCCCC(=O)O)C(=O)O)NC(=O)[C@H](CC(C)C)NC(=O)[C@H](CCC(=O)O)NC(=O)[C@H](CO)NC(=O)[C@@H](NC(=O)[C@H](CC(=O)O)NC(=O)[C@H](CO)NC(=O)[C@@H](NC(=O)[C@H](Cc1ccccc1)NC(=O)[C@@H](NC(=O)CNC(=O)[C@H](CCC(=O)O)NC(=O)C(C)(C)NC(=O)[C@@H](N)Cc1c[nH]cn1)[C@@H](C)O)[C@@H](C)O)C(C)C)C(=O)N[C@@H](C)C(=O)N[C@@H](C)C(=O)N[C@@H](CO)C(=O)N[C@@H](CCC(N)=O)C(=O)N[C@@H](CCCNC(=N)N)C(=O)N[C@@H](Cc1ccccc1)C(=O)N[C@@H](CC(C)C)C(=O)N[C@@H](CCC(=O)O)C(=O)N[C@@H](Cc1c[nH]cn1)C(=O)N[C@@H](CC(C)C)C(=O)N[C@H](C(N)=O)C(C)C [compound 12] (H-H[Aib]EGTFTSDVSELK([AEEA-AEEA-γGlu-C20 diacid])ELAASQRFLEHLV-NH2) | – | – | 7904 | 0.09 | – | – | 33473 | – | 0.02 nM | 631 nM
4 | CC(C)C[C@H](NC(=O)[C@H](Cc1ccccc1)NC(=O)[C@H](CCCNC(=N)N)NC(=O)[C@H](CCC(N)=O)NC(=O)[C@@H](NC(=O)[C@H](C)NC(=O)[C@H](C)NC(=O)C(C)(C)NC(=O)[C@H](CCC(=O)O)NC(=O)[C@H](CCCCNC(=O)COCCOCCNC(=O)COCCOCCNC(=O)CC[C@H](NC(=O)CCCCCCCCCCCCCCCCCCC(=O)O)C(=O)O)NC(=O)[C@H](CC(C)C)NC(=O)[C@H](CCCNC(=N)N)NC(=O)[C@H](CO)NC(=O)[C@@H](NC(=O)[C@H](CC(=O)O)NC(=O)[C@H](CO)NC(=O)[C@@H](NC(=O)[C@H](Cc1ccccc1)NC(=O)[C@@H](NC(=O)CNC(=O)[C@H](CCC(=O)O)NC(=O)C(C)(C)NC(=O)[C@@H](N)Cc1c[nH]cn1)[C@@H](C)O)[C@@H](C)O)C(C)C)[C@@H](C)O)C(=O)N[C@@H](CCC(=O)O)C(=O)N[C@@H](Cc1c[nH]cn1)C(=O)N[C@@H](CC(C)C)C(=O)N[C@H](C(N)=O)C(C)C [compound 50] (H-H[Aib]EGTFTSDVSRLK([AEEA-AEEA-γGlu-C20 diacid])E[Aib]AATQRFLEHLV-NH2) | – | – | 12284 | 0.09 | – | – | 3425 | – | 0.0158 nM | 50.1 nM
5 | CC[C@H](C)[C@H](NC(=O)[C@H](Cc1ccccc1)NC(=O)[C@H](CCCNC(=N)N)NC(=O)[C@H](CCC(N)=O)NC(=O)[C@H](CC(C)C)NC(=O)[C@H](C)NC(=O)[C@H](C)NC(=O)CNC(=O)[C@H](CCC(=O)O)NC(=O)[C@H](CC(C)C)NC(=O)[C@H](CC(C)C)NC(=O)[C@H](Cc1ccccc1)NC(=O)[C@H](CO)NC(=O)[C@@H]1CCCN1C(=O)[C@H](CC(=O)O)NC(=O)[C@H](CO)NC(=O)[C@@H](NC(=O)[C@H](Cc1ccccc1)NC(=O)[C@@H](NC(=O)CNC(=O)[C@H](CCC(=O)O)NC(=O)C(C)(C)NC(=O)[C@@H](N)Cc1c[nH]cn1)[C@@H](C)O)[C@@H](C)O)C(=O)N[C@@H](CCC(N)=O)C(=O)N[C@@H](Cc1c[nH]c2ccccc12)C(=O)N[C@@H](CC(C)C)C(=O)N[C@H](C(N)=O)C(C)C [compound 126] (H-H[Aib]EGTFTSDPSFLLEGAALQRFIQWLV-NH2) | 7.94 nM | 253 | 41799 | 0.26 | 2000 nM | – | – | – | – | –
6 | CC[C@H](C)[C@H](NC(=O)[C@H](Cc1ccccc1)NC(=O)[C@H](CCCNC(=N)N)NC(=O)[C@H](CCC(N)=O)NC(=O)[C@H](CC(C)C)NC(=O)[C@H](C)NC(=O)[C@H](C)NC(=O)CNC(=O)[C@H](CCC(=O)O)NC(=O)[C@H](CC(C)C)NC(=O)[C@H](CC(C)C)NC(=O)CNC(=O)[C@H](CO)NC(=O)C(C)(C)NC(=O)[C@H](CC(=O)O)NC(=O)[C@H](CO)NC(=O)[C@@H](NC(=O)[C@H](Cc1ccccc1)NC(=O)[C@@H](NC(=O)CNC(=O)[C@H](CCC(=O)O)NC(=O)C(C)(C)NC(=O)[C@@H](N)Cc1c[nH]cn1)[C@@H](C)O)[C@@H](C)O)C(=O)N[C@@H](CCC(N)=O)C(=O)N[C@@H](Cc1c[nH]c2ccccc12)C(=O)N[C@@H](CC(C)C)C(=O)N[C@H](C(N)=O)C(C)C [compound 105] (H-H[Aib]EGTFTSD[Aib]SGLLEGAALQRFIQWLV-NH2) | 0.1 nM | 14710 | 4216 | 0.12 | 1580 nM | – | – | – | – | –
